ChEMBL document CHEMBL3779889, “Synthetic approaches to the 2014 new drugs” (Bioorg Med Chem, 2016)
Structures can show the parent of a compound that is named as a salt. Each block holds one molecule with its values, some of them ahead of it.

Assays:
[1] = target: T1, Sodium/glucose cotransporter 2 (Homo sapiens, UniProt P31639); assay: Competitive inhibition of human SGLT2 expressed in CHO-K1 cells assessed as inhibition of [14C]-alpha-methylglucoside uptake; assay type: cell-based
T1 sequence (P31639 whole entry): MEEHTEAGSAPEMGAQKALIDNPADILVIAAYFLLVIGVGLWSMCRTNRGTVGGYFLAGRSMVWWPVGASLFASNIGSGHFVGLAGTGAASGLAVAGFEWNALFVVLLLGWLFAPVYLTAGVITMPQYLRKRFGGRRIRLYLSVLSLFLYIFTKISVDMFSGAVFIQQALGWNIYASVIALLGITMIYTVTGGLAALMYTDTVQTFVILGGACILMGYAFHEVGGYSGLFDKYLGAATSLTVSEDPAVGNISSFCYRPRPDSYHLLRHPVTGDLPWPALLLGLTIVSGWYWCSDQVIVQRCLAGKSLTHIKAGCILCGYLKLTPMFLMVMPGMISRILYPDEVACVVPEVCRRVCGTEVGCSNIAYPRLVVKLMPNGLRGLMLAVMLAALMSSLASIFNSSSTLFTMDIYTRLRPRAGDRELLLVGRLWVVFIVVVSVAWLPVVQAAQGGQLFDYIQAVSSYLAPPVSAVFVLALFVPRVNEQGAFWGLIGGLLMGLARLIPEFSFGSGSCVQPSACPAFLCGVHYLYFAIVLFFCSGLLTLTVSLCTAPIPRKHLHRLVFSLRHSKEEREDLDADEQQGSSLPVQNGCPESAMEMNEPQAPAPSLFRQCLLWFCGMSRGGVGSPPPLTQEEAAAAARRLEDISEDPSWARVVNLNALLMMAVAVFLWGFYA

[2] = tested on: Hepatitis C virus; assay: Antiviral activity against HCV genotype 1a; assay type: functional, organism-based, Hepacivirus hominis; settings: subtype 1a
[3] = Half life of compound in human plasma in presence of CYP3A inhibitor ritonavir; assay type: ADME, organism-based; settings: with ritonavir (CYP3A inhibitor)
[4] = target: Vascular endothelial growth factor receptor 2 (Homo sapiens, UniProt P35968); assay: Inhibition of VEGF2 receptor (unknown origin) by ELISA
Sequence of Vascular endothelial growth factor receptor 2 (P35968 whole entry): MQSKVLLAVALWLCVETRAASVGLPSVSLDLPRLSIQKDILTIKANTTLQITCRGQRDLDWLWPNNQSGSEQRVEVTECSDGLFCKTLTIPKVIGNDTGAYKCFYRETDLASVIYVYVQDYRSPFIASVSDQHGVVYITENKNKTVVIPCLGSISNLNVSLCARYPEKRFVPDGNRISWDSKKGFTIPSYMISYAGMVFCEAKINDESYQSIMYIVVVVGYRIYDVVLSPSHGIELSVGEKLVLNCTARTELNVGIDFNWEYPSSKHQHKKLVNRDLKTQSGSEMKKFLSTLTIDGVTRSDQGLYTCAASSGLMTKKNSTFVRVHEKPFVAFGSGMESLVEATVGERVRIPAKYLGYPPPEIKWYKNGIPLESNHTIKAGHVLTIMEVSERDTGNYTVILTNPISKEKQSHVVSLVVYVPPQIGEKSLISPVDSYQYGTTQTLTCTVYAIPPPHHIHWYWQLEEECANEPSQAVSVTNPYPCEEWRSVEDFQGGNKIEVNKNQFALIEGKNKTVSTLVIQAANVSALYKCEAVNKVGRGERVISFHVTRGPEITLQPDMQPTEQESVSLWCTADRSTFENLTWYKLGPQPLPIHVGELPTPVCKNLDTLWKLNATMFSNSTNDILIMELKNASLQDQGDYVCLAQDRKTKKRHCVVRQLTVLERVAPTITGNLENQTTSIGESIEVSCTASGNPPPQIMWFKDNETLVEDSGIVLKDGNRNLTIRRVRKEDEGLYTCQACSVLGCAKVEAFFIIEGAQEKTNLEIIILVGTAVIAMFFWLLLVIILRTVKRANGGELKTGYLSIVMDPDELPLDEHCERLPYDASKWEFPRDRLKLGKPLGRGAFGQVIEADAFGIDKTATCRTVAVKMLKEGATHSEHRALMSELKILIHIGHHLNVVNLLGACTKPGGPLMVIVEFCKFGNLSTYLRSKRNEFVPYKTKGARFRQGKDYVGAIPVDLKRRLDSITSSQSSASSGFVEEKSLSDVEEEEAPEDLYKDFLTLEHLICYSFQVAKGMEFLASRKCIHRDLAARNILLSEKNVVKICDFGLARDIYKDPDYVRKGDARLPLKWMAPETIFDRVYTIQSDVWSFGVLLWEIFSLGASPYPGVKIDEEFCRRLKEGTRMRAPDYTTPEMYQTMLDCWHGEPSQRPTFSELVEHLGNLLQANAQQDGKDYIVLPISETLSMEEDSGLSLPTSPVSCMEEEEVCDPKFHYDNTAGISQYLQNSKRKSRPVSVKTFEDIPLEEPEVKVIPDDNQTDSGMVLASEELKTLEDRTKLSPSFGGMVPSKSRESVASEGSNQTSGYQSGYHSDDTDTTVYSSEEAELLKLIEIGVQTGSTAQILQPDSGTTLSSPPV

- Ki [1]: 1.1 nM
SMILES: CCOc1ccc(Cc2cc([C@@H]3S[C@H](CO)[C@@H](O)[C@H](O)[C@H]3O)c(OC)cc2C)cc1

- EC50 [2]: 1 nM
- half-life [3]: 5.5 h
SMILES: Cc1cnc(C(=O)N[C@H]2CCCCC/C=C\[C@@H]3C[C@@]3(C(=O)NS(=O)(=O)C3CC3)NC(=O)[C@@H]3C[C@@H](Oc4nc5ccccc5c5ccccc45)CN3C2=O)cn1.O.O

- IC50 [4]: 1 nM
SMILES: N#CC1(c2ccc(NC(=O)c3cccnc3NCc3ccncc3)cc2)CCCC1 [RIVOCERANIB MESYLATE]
